# According to PubChem BioAssay (NCI):
#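 Where inhibition never reached the appropriate level, the endpoint shown equals the highest concentration tested. Otherwise, values were interpolated linearly from a five-concentration, 48-hour dose response in 96-well plates. TGI marks complete inhibition of growth.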
# Columns and labels:
# Assay in all cases: growth of human tumour cells (NCI), 48 h
# [1] = tested on: CCRF-CEM leukemia
# [2] = tested on: NCI-H23 lung
# [3] = tested on: HCT-116 colon
# [4] = tested on: BT-549 breast
# [5] = tested on: COLO 205 colon
# [6] = tested on: OVCAR-5 ovarian
# [7] = tested on: T-47D breast
# [8] = tested on: OVCAR-8 ovarian
# [9] = tested on: PC-3 prostate
# [10] = tested on: HCC-2998 colon
# [11] = tested on: SF-539 CNS
# [12] = tested on: ACHN renal
# [13] = tested on: HS 578T breast
# [14] = tested on: A498 renal
# [15] = tested on: A549 NSCLC
# [16] = tested on: LOX IMVI melanoma
# [17] = tested on: HL-60(TB) leukemia
# [18] = tested on: MALME-3M melanoma
# [19] = tested on: IGROV1 ovarian
# [20] = tested on: MDA-MB-435
# [21] = tested on: SK-OV-3 ovarian
# [22] = tested on: OVCAR-4 ovarian
# [23] = tested on: HOP-62 NSCLC
# [24] = tested on: TK-10 renal
# [25] = tested on: SK-MEL-28 melanoma
# [26] = tested on: NCI-H226 lung
# [27] = tested on: SF-295 CNS
# [28] = tested on: NCI-H460 lung
# [29] = tested on: MDA-MB-231 breast
# [30] = tested on: SR leukemia
# [31] = tested on: KM12 colon
# [32] = tested on: M14 melanoma
# [33] = tested on: UACC-257 melanoma
# [34] = tested on: SW-620 colon
# [35] = tested on: SF-268 CNS
# [36] = tested on: MOLT-4 leukemia
# [37] = tested on: NCI-H522 lung
# [38] = tested on: RPMI-8226 leukemia
# [39] = tested on: K-562 leukemia
# [40] = tested on: UACC-62 melanoma
# [41] = tested on: 786-0 renal
# [42] = tested on: NCI/ADR-RES ovarian
# [43] = tested on: DU-145 prostate
# [44] = tested on: HCT-15 colon
# [45] = tested on: U251 CNS
# [46] = tested on: SN12C renal
# [47] = tested on: SNB-19 CNS
# [48] = tested on: MCF7 breast
# [49] = tested on: UO-31 renal
# [50] = tested on: SK-MEL-5 melanoma
# [51] = tested on: HOP-92 NSCLC
# [52] = tested on: EKVX NSCLC
# [53] = tested on: MDA-N
# [54] = tested on: SNB-75 CNS
# [55] = tested on: HT29 colon
# [56] = tested on: OVCAR-3 ovarian
# [57] = tested on: SK-MEL-2 melanoma
# [58] = tested on: CAKI-1 renal
# [59] = tested on: RXF 393 renal
compound,measurement,setting,value
O=C1CC(c2ccc([N+](=O)[O-])cc2)C2(C(=O)NC(=S)NC2=O)C(c2ccc([N+](=O)[O-])cc2)C1 (configuration not stated),TGI,[1],> 100 µM
same,TGI,[2],64.1 µM
same,TGI,[3],32.4 µM
same,TGI,[4],34.1 µM
same,TGI,[5],> 100 µM
same,TGI,[6],87.4 µM
same,TGI,[7],96.3 µM
same,TGI,[8],45.1 µM
same,TGI,[9],> 100 µM
same,TGI,[10],49.8 µM
same,TGI,[11],> 100 µM
same,TGI,[12],40.4 µM
same,TGI,[13],88.2 µM
same,TGI,[14],85 µM
same,TGI,[15],50.4 µM
same,TGI,[16],39.4 µM
same,TGI,[17],> 100 µM
same,TGI,[18],32.2 µM
same,TGI,[19],45.2 µM
same,TGI,[20],40.4 µM
same,TGI,[21],> 100 µM
same,TGI,[22],> 100 µM
same,TGI,[23],56 µM
same,TGI,[24],46.7 µM
same,TGI,[25],> 100 µM
same,TGI,[26],36.9 µM
same,TGI,[27],60.1 µM
same,TGI,[28],42.2 µM
same,TGI,[29],37.3 µM
same,TGI,[30],> 100 µM
same,TGI,[31],36.3 µM
same,TGI,[32],45.7 µM
same,TGI,[33],40.9 µM
same,TGI,[34],> 100 µM
same,TGI,[35],45.6 µM
same,TGI,[36],> 100 µM
same,TGI,[37],36.4 µM
same,TGI,[38],> 100 µM
same,TGI,[39],> 100 µM
same,TGI,[40],32.6 µM
same,TGI,[41],87.7 µM
same,TGI,[42],> 100 µM
same,TGI,[43],83.3 µM
same,TGI,[44],58 µM
same,TGI,[45],37 µM
same,TGI,[46],53.4 µM
same,TGI,[47],43.5 µM
same,TGI,[48],43.8 µM
same,TGI,[49],63.1 µM
same,TGI,[50],99.1 µM
same,TGI,[51],> 100 µM
same,TGI,[52],82.9 µM
same,TGI,[53],> 100 µM
same,TGI,[54],> 100 µM
same,TGI,[55],> 100 µM
same,TGI,[56],76.1 µM
Cc1cc(O)cc(O)c1N=Nc1ccc([N+](=O)[O-])cc1,TGI,[1],> 100 µM
same,TGI,[2],52 µM
same,TGI,[3],15.4 µM
same,TGI,[4],54.1 µM
same,TGI,[5],> 100 µM
same,TGI,[6],85.1 µM
same,TGI,[7],> 100 µM
same,TGI,[8],> 100 µM
same,TGI,[9],> 100 µM
same,TGI,[10],49 µM
same,TGI,[11],49.9 µM
same,TGI,[12],94.9 µM
same,TGI,[57],75.4 µM
same,TGI,[58],38.9 µM
same,TGI,[13],73.7 µM
same,TGI,[14],50.9 µM
same,TGI,[15],> 100 µM
same,TGI,[16],84.8 µM
same,TGI,[17],> 100 µM
same,TGI,[18],87.7 µM
same,TGI,[19],66.3 µM
same,TGI,[20],42.4 µM
same,TGI,[21],> 100 µM
same,TGI,[22],57 µM
same,TGI,[23],> 100 µM
same,TGI,[24],> 100 µM
same,TGI,[25],61 µM
same,TGI,[27],> 100 µM
same,TGI,[28],61 µM
same,TGI,[29],47.4 µM
same,TGI,[31],63.1 µM
same,TGI,[32],> 100 µM
same,TGI,[33],79.5 µM
same,TGI,[34],> 100 µM
same,TGI,[35],> 100 µM
same,TGI,[36],17.3 µM
same,TGI,[37],14.5 µM
same,TGI,[38],39.8 µM
same,TGI,[39],> 100 µM
same,TGI,[40],32.2 µM
same,TGI,[42],52.9 µM
same,TGI,[43],79.1 µM
same,TGI,[44],28.9 µM
same,TGI,[45],53.9 µM
same,TGI,[46],54 µM
same,TGI,[47],> 100 µM
same,TGI,[48],> 100 µM
same,TGI,[49],83.8 µM
same,TGI,[50],38.4 µM
same,TGI,[51],8.17 µM
same,TGI,[52],90.8 µM
same,TGI,[53],83.9 µM
same,TGI,[54],45.6 µM
same,TGI,[59],40.5 µM
same,TGI,[55],> 100 µM
same,TGI,[56],> 100 µM
